Like-named read-outs stand apart in the source and are kept apart here.

The target of data set [1] is T1, OCT1 (Homo sapiens, UniProt O15245).
T1 sequence (O15245 1-554): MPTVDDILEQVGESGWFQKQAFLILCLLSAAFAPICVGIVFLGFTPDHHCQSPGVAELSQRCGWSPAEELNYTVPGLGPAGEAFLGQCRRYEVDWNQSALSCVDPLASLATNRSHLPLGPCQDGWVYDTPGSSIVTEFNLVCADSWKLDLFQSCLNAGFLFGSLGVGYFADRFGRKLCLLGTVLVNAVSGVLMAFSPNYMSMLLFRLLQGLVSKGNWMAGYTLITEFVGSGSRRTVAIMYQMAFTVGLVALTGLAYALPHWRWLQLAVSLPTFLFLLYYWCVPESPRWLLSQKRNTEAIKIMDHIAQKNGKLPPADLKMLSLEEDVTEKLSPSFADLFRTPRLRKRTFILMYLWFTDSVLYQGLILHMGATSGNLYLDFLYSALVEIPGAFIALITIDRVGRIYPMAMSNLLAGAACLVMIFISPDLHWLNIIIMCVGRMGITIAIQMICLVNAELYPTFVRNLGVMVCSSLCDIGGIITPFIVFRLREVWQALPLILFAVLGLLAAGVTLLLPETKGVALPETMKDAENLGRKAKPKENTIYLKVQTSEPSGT
As to the kind of experiment: Inhibition of model substrate uptake in OCT1-overexpressing HEK293 cells. The class given is cell-based. Also noted: expressed in transfected cells; host or cells: HEK293. The following applies: for Sumatriptan inhibition [%]: pH 7.4. As to the method:
Koepsell and Gorbulev (University of Würzburg, Germany).
Fluorescence quantification was performed in technical duplicates.

Data set [2] addresses T2, OCT3 (Homo sapiens, UniProt O75751).
T2 construct: expressed in transfected cells; host or cells: HEK293
T2 sequence (O75751 1-556): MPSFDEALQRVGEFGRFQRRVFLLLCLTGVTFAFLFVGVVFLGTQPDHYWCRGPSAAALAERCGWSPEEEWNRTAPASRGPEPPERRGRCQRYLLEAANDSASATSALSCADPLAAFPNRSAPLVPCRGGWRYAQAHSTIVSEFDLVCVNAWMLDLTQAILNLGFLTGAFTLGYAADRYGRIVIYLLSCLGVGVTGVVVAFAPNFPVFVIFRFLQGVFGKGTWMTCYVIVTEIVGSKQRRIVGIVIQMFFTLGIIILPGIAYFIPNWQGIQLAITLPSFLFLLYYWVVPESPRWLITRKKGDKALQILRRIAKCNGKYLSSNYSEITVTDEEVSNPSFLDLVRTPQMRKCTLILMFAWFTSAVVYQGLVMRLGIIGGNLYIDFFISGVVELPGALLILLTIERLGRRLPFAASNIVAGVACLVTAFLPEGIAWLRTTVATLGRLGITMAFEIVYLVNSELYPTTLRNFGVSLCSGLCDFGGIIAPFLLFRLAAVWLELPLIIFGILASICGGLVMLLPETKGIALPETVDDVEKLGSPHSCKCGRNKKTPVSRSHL
As to the kind of experiment: Inhibition of model substrate uptake in OCT3-overexpressing HEK293 cells. The class given is cell-based. On the procedure: (§1) All experiments were carried out in transporter-overexpressing HEK293 cells. OCT1-, OCT2-, NET-, DAT-, and SERT-overexpressing cells as well as the empty-vector transfected control cell line were generated as described earlier,[26]−[28] whereas the OCT3-overexpressing HEK293 cells were generous gift of from Drs. Koepsell and Gorbulev (University of Würzburg, Germany). All cells were cultivated in Dulbecco’s modified Eagle’s medium (DMEM) supplemented with 10% (v/v) FCS, penicillin (100 U/mL), and streptomycin (100 μg/mL) and kept in culture for no longer than 30 passages.
(§2) As for the transport experiments, 300,000 HEK293 cells were plated in poly-D-lysine-coated 24-well plates 2 days ahead of the experiment. On every plate, two wells of empty vector (EV)-transfected cells were used as a control to account for the passive influx of the model substrate, and two wells of transporter-overexpressing cells were used to determine the noninhibited uptake of the model substrate. Cells were initially washed once with 37 °C HBSS+ and then incubated with 2 μM model substrate (0.2 μM for MPP^+ uptake by MATs) with and without 20 μM inhibitor for 5 min. For concentration-dependent inhibition experiments, the cells were incubated with increasing inhibitor concentrations. The incubation was terminated by aspiration of the buffer before cells were washed twice with ice-cold HBSS+ and lysed in 80% acetonitrile. Cell lysates were transferred into a black 96-well plate for the fluorescence measurement of ASP^+ or used for sample preparation for LC–MS/MS analysis. […] Fluorescence quantification was performed in technical duplicates.
(§3) Transporter-mediated net uptake was calculated as the difference between uptake in transporter-overexpressing cells and that in the empty-vector-transfected control. […] Vmax is the maximum transport velocity, while Km is defined as the substance concentration that is required to reach half of vmax. The ratio of vmax over Km is termed intrinsic clearance Clint. For inhibition experiments, the transport activity was calculated by using the following equation [drawing 1]
(§4) SubstrateEV refers to the passive uptake of model substrates into the control cells and substratenoninhibited is the uptake in transporter-overexpressing cells without the presence of any inhibitor. The percent inhibition values are then calculated as described in the following [drawing 2]
(§5) For concentration inhibition experiments, the transporter activity was plotted against the log10 of inhibitor concentrations, and the data were fitted by the following equation to determine IC50 values [drawing 3]
(§6) Y refers to the transporter activity, whereas Ymax is the maximum and Ymin is the minimal transporter activity. X is the log10 of inhibitor concentrations, IC50 is the half-maximal inhibitory concentration, and hill slope is the slope factor.

The target of data set [3] is T3, OCT2 (Homo sapiens, UniProt O15244).
T3 sequence (O15244 1-555): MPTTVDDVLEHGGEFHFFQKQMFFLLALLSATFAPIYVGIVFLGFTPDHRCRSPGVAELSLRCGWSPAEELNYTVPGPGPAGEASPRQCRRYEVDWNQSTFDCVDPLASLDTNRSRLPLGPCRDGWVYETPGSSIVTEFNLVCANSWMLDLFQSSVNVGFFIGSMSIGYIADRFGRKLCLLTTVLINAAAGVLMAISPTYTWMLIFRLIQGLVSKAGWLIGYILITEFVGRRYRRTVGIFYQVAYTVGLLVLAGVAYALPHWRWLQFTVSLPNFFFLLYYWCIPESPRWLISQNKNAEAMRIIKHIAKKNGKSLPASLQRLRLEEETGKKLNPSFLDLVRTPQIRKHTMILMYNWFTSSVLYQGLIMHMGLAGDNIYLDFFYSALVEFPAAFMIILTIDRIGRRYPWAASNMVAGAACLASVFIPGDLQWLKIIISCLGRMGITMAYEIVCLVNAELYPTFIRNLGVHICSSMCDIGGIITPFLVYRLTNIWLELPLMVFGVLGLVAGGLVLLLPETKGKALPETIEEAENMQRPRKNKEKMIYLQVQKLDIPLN
As to the kind of experiment: Inhibition of model substrate uptake in OCT2-overexpressing HEK293 cells. As to the method:
as §1, §2, §3, §4, §5, §6

Where [4] appears, read: HEK293, 5 min, read-out: (S)-Zolmitriptan inhibition [%], OCT3, 20 μM inhibitor, 2 μM (S)-zolmitriptan, 5 min.
Where [5] appears, read: HEK293, 5 min, read-out: (S,S)-Ethambutol inhibition [%], OCT3, 20 μM inhibitor, 2 μM (S,S)-ethambutol, 5 min.
The mark [6] stands for this setting: OCT2, 20 μM inhibitor, 2 μM (S,S)-ethambutol, 5 min.
[7] abbreviates: human, OCT1-overexpressing HEK293 cells, pH 7.4, probe (S,S)-ethambutol (2 μM), (S,S)-Ethambutol inhibition [%], OCT1, 20 μM inhibitor, 2 μM (S,S)-ethambutol, 5 min.
Setting [8] is: human, OCT1-overexpressing HEK293 cells, pH 7.4, probe ASP+ (2 μM), OCT1, 20 μM inhibitor, 2 μM ASP+, 5 min, mean of three experiments, read-out: ASP+ inhibition [%].
[9] abbreviates: human, OCT1-overexpressing HEK293 cells, pH 7.4, probe sumatriptan (2 μM), OCT1, 20 μM inhibitor, 2 μM sumatriptan, 5 min, read-out: Sumatriptan inhibition [%].
Setting [10] is: HEK293, OCT3, 20 μM inhibitor, 2 μM ASP+, 5 min, read-out: ASP+ inhibition [%].
The mark [11] stands for this setting: human, OCT2-overexpressing HEK293 cells, pH 7.4, probe (S,S)-ethambutol (2 μM), (S,S)-Ethambutol inhibition [%], OCT2, 20 μM inhibitor, 2 μM (S,S)-ethambutol, 5 min.
Setting [12] is: human, OCT2-overexpressing HEK293 cells, pH 7.4, probe ASP+ (2 μM), ASP+ inhibition [%], OCT2, 20 μM inhibitor, 2 μM ASP+, 5 min.
[13] abbreviates: human, OCT2-overexpressing HEK293 cells, pH 7.4, probe N-ethyllidocaine (2 μM), N-Ethyllidocaine inhibition [%], OCT2, 20 μM inhibitor, 2 μM N-ethyllidocaine, 5 min.
[14] abbreviates: OCT1, 20 μM inhibitor, 2 μM ASP+, 5 min, mean of three experiments.

Turning to `O=C(OC1C[N+]2(CCCOc3ccccc3)CCC1CC2)C(O)(c1cccs1)c1cccs1` [(R)-Aclidinium], the inhibition at 5 min, 20 μM amounted to 98.8% in data set [1] (human, pH 7.4, (S,S)-Ethambutol inhibition [%], OCT1, 20 μM inhibitor, 2 μM (S,S)-ethambutol, 5 min); 71.6% in data set [1] (human, pH 7.4, OCT1, 20 μM inhibitor, 2 μM ASP+, 5 min, mean of three experiments, read-out: ASP+ inhibition [%]); 93.6% in data set [1] (human, pH 7.4, OCT1, 20 μM inhibitor, 2 μM sumatriptan, 5 min, read-out: Sumatriptan inhibition [%]); 108% in data set [3] (human, pH 7.4, ASP+ inhibition [%], OCT2, 20 μM inhibitor, 2 μM ASP+, 5 min); 69.1% in data set [3] (human, pH 7.4, N-Ethyllidocaine inhibition [%], OCT2, 20 μM inhibitor, 2 μM N-ethyllidocaine, 5 min). In addition, the inhibition at 20 µM came out at 43.3% in data set [2] (setting [4]); 62.8% in data set [2] (setting [5]); 37.1% in data set [2] (HEK293, read-out: ASP+ inhibition [%], OCT3, 20 μM inhibitor, 2 μM ASP+, 5 min). For the same molecule, the “(S,S)-Ethambutol inhibition [%]” value in data set [3] (setting [6]) is -0.8%.

On to `CCCCN1CCCC[C@@H]1C(=O)Nc1c(C)cccc1C` [(R)-Bupivacaine], for which the IC50 in data set [1] (OCT1, Table 1, read-out: IC50) came out at 10.2 µM; in data set [3] (IC50 [μM], OCT2, Table 1), 21.4 µM. Further, the inhibition at 5 min, 20 μM in data set [1] (setting [7]) worked out at 63.8%; in data set [1] (setting [8]), 32.8%; in data set [1] (setting [9]) it was 59.2%; in data set [3] (setting [11]), 56.3%; in data set [3] (setting [12]) it was 59.5%; in data set [3] (setting [13]), 64.4%. The values for the inhibition at 20 µM in data set [2] (setting [4]), in data set [2] (setting [5]) and in data set [2] (setting [10]) were 51.8%, 50.3% and 31.4%, respectively.

Turning to `COc1ccccc1OCCNC[C@@H](O)COc1cccc2[nH]c3ccccc3c12` [(R)-Carvedilol], the inhibition at 5 min, 20 μM in data set [1] (setting [7]) turned out to be 100%; in data set [1] (setting [8]), 76.9%; in data set [1] (setting [9]), 96.6%; in data set [3] (setting [11]), 13.5%; in data set [3] (setting [12]), 99.6%; in data set [3] (setting [13]) it was 58.2%. In addition, the figures for the inhibition at 20 µM in data set [2] (setting [4]), in data set [2] (setting [5]) and in data set [2] (setting [10]) were 37.9%, 48.6% and 23.5%, respectively.

As for `N[C@@H]1CONC1=O` [(R)-Cycloserine], the “(S,S)-Ethambutol inhibition [%]” value in data set [1] (OCT1, 20 μM inhibitor, 2 μM (S,S)-ethambutol, 5 min) is 17.6%; in data set [3] (setting [6]) it was 5.0%. The “ASP+ inhibition [%]” value in data set [1] (setting [14]) is listed as -0.8%. The inhibition at 5 min, 20 μM in data set [1] (setting [9]) came out at 28%; in data set [3] (setting [12]), 12.3%; in data set [3] (setting [13]), 13.6%. In addition, the inhibition at 20 µM is 7.4% in data set [2] (setting [5]) and 17.8% in data set [2] (setting [10]). In addition, the “(S)-Zolmitriptan inhibition [%]” value in data set [2] (OCT3, 20 μM inhibitor, 2 μM (S)-zolmitriptan, 5 min) was -0.4%.

As for `C#CCN(C)[C@H](C)Cc1ccccc1` [(R)-Deprenyl], the “ASP+ inhibition [%]” value in data set [1] (setting [14]) came to 21.6%; in data set [3] (OCT2, 20 μM inhibitor, 2 μM ASP+, 5 min), 101.0%. The “Sumatriptan inhibition [%]” value in data set [1] (human) is listed as 62.3%. Besides, the inhibition at 20 µM in data set [2] (HEK293, 5 min, read-out: (S)-Zolmitriptan inhibition [%]) turned out to be 18%; in data set [2] (HEK293, 5 min, read-out: (S,S)-Ethambutol inhibition [%]), 24.2%; in data set [2] (setting [10]) it was 12.6%. This molecule also showed an IC50 in data set [3] (IC50, OCT2, Table S5, 2 μM ASP+ as model substrate, 5 min) of 2.4 µM. Moreover, in data set [3] (OCT2, 20 μM inhibitor, 2 μM N-ethyllidocaine, 5 min), the “N-Ethyllidocaine inhibition [%]” value was 52.3%.

On to `CCN[C@@H](C)Cc1cccc(C(F)(F)F)c1` [(S)-Fenfluramine], for which the “ASP+ inhibition [%]” value in data set [1] (setting [14]) came to 41.9%. The “Sumatriptan inhibition [%]” value in data set [1] (human) is reported as 87.1%. In data set [2], the “(S)-Zolmitriptan inhibition [%]” value amounted to 51.9% and the “(S,S)-Ethambutol inhibition [%]” value was 40.7%. Moreover, the “ASP+ inhibition [%]” value in data set [2] (OCT3, 20 μM inhibitor, 2 μM ASP+, 5 min) was 12.7%.

As to `CCCN[C@H]1CCc2nc(N)sc2C1` [Pramipexole], the selectivity ratio at 5 min in data set [1] (human, OCT1-overexpressing HEK293 cells, pH 7.4, OCT1, ratio of the IC50 values of the two enantiomers of the drug, read-out: x-fold Stereoselectivity) was determined as 1.6; in data set [3] (human, OCT2-overexpressing HEK293 cells, pH 7.4), 4.

For orientation: inhibition means the change of the read-out against control, counted positive when it falls. The term IC50 denotes the concentration that inhibits the measured activity by half.
